Data taken from ChEMBL document CHEMBL1139916, “6-hydroxy to 6'''-amino tethered ring-to-ring macrocyclic aminoglycosides as probes for APH(3')-IIIa kinase” (2007).

Key:
[1] = Ratio of Kcat/Km of bacterial APH(3')-3a kinase-mediated low affinity phosphorylation
[2] = Ratio of Kcat/Km of bacterial APH(3')-3a kinase-mediated high affinity phosphorylation
[3] = Activity of bacterial APH(3')-3a kinase assessed low affinity phosphorylation
[4] = Activity of bacterial APH(3')-3a kinase assessed high affinity phosphorylation
Staphylococcus aureus = assay: Growth inhibition of Staphylococcus aureus; type: functional
Escherichia coli = assay: Growth inhibition of Escherichia coli; type: functional
[5] = Activity of bacterial APH(3')-3a kinase
[6] = Ratio of Kcat/Km of bacterial APH(3')-3a kinase

For NC[C@@H]1O[C@H](O[C@H]2[C@@H](O)[C@H](O[C@@H]3[C@@H](O)[C@H](N)C[C@H](N)[C@H]3O[C@H]3O[C@H](CO)[C@@H](O)[C@H](O)[C@H]3N)O[C@@H]2CO)[C@H](N)[C@@H](O)[C@@H]1O, the kcat/Km [1] was 5.95 10^3/M/s, the kcat/Km [2] was 1.12 10^4/M/s and the Km [3] was 51.1 µM. For the same compound, the Vmax [3] was 0.292 µM/s, the kcat [3] was 0.304 s⁻¹ and the Km [4] was 16.9 µM. It also gave a Vmax [4] of 0.183 µM/s and a kcat [4] of 0.19 s⁻¹.
Work on N[C@H]1[C@H]2O[C@H]3[C@@H](O)[C@H](O[C@@H]4[C@@H](OCCCCCNC[C@H](O2)[C@@H](O)[C@@H]1O)[C@H](N)C[C@H](N)[C@H]4O[C@H]1O[C@H](CO)[C@@H](O)[C@H](O)[C@H]1N)O[C@@H]3CO yielded an MIC (Staphylococcus aureus) greater than 40 µg/mL and an MIC (Escherichia coli) greater than 10 µg/mL.
Compound N[C@H]1[C@H]2O[C@H]3[C@@H](O)[C@H](O[C@@H]4[C@@H](OCCCCC(=O)NC[C@H](O2)[C@@H](O)[C@@H]1O)[C@H](N)C[C@H](N)[C@H]4O[C@H]1O[C@H](CO)[C@@H](O)[C@H](O)[C@H]1N)O[C@@H]3CO has a Km [5] of 21.8 µM, a Vmax [5] of 0.07 µM/s and a kcat [5] of 0.073 s⁻¹. The MIC (Staphylococcus aureus) was greater than 40 µg/mL, the kcat/Km [6] was 3.35 10^3/M/s and the MIC (Escherichia coli) was greater than 10 µg/mL.
